# Experimental data: patent US20250296959A1, “B7-H3 TARGETING PEPTIDES AND CONSTRUCTS THEREOF” (Mariana Oncology Inc., priority 2024, published 2025)
# Starred links: 1 amine or outer side, 2 acyl side, 3 side chain; linkers in the order of their positions; H or OH if unused. Positions of bridges follow the written chain, without caps; N, C: chain ends. Non-standard residues stand in square brackets, D forms with d. Residues, ends and D or L forms follow the SMILES beside them. Groups on a side chain read outwards from the residue. *: point of attachment. Ala(1-CH2CO2H-4-piperidyl) = N[C@@H](CC1CCN(CC(=O)O)CC1)C(=O)O; Ala(piperidin-4-yl) = O=C([C@H](CC1CCN([*:3])CC1)N[*:1])[*:2]; DOTA = O=C(O)CN1CCN(CC(=O)O)CCN(CC(=O)*)CCN(CC(=O)O)CC1; Tyr(SO2F) = N[C@@H](Cc1ccc(OS(=O)(=O)F)cc1)C(=O)O; Trp(5-F) = N[C@@H](Cc1c[nH]c2ccc(F)cc12)C(=O)O; Trp(2-Me) = Cc1[nH]c2ccccc2c1C[C@H](N)C(=O)O; γGlu = O=C(O)[C@H](CCC(=O)[*:2])N[*:1]; Ala(4-THP) = N[C@@H](CC1CCOCC1)C(=O)O; Val(3-OH) = CC(C)(O)[C@H](N)C(=O)O; Trx = NC[C@H]1CC[C@H](C(=O)O)CC1; hCha = N[C@@H](CCC1CCCCC1)C(=O)O; Cit = NC(=O)NCCC[C@H](N)C(=O)O; PEG4 = NCCOCCOCCOCCOCCC(=O)O; Tle = CC(C)(C)[C@H](N)C(=O)O; hLeu = CC(C)CC[C@H](N)C(=O)O
# Molecular target: T1, human 4lg B7-H3 (Homo sapiens, UniProt Q5ZPR3)
# T1 sequence (Q5ZPR3 29-534): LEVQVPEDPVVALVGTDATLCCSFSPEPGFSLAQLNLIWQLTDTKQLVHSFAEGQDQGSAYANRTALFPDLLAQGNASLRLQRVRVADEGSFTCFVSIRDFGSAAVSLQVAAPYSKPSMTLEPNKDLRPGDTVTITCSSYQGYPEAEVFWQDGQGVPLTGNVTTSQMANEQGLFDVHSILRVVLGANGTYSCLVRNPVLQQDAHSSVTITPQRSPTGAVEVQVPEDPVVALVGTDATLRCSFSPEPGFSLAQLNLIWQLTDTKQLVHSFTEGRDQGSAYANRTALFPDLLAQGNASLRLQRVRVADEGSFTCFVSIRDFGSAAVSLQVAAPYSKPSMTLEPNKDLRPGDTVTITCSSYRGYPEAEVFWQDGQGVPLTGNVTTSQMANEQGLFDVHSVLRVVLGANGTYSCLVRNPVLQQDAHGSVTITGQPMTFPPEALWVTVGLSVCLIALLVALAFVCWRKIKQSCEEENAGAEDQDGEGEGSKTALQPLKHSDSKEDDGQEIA
# Assay: Affinity determination by surface plasmon resonance (SPR) to 4Ig B7-H3
# Conditions: not given
row,Compound,Kd [nM]
1,"CC(=O)N[C@@H](CCC(C)C)C(=O)N[C@@H](Cc1ccc(OS(=O)(=O)F)cc1)C(=O)N[C@H]1CSSC[C@@H](C(=O)N[C@@H](Cc2c[nH]c3ccc(F)cc23)C(=O)N[C@@H](Cc2ccccc2)C(=O)N[C@H](C(=O)N[C@H](CCCCNC(=O)CN2CCN(CC(=O)O)CCN(CC(=O)O)CCN(CC(=O)O)CC2)C(=O)O)C(C)(C)O)NC(=O)[C@H](Cc2ccc(O)cc2)NC(=O)[C@H](C(C)C)NC(=O)[C@H](CC(=O)O)NC(=O)[C@H](CC2CCOCC2)NC(=O)[C@H](CC2CCNCC2)NC(=O)CNC(=O)[C@H](C(C)(C)C)NC1=O [compound 478, Ac-hLeu-FSY-C-Tbg-G-PipAla-ThpA-D-V-Y-C-5FW-F-hydroxyVal-dLys(DOTA)-COOH] (Ac-[hLeu][Tyr(SO2F)]C[Tle]G[Ala(piperidin-4-yl)][Ala(4-THP)]DVYC[Trp(5-F)]F[Val(3-OH)][dK](DOTA)-OH; disulfide 3-11)",10 to 100

# Same assay, conditions: SPR KD—37° C., 4Ig B7-H3; 37° C. flow cell temperature
row,Compound,Kd [nM]
1,"CC(=O)N[C@@H](CCC(C)C)C(=O)N[C@@H](Cc1ccc(O)cc1)C(=O)N[C@H]1CSSC[C@@H](C(=O)N[C@@H](Cc2c[nH]c3ccc(F)cc23)C(=O)N[C@@H](Cc2ccccc2)C(=O)N[C@H](C(=O)N[C@H](CCCCNC(=O)CC[C@H](NC(=O)[C@H]2CC[C@H](CNC(=O)CN3CCN(CC(=O)O)CCN(CC(=O)O)CCN(CC(=O)O)CC3)CC2)C(=O)O)C(=O)O)C(C)(C)O)NC(=O)[C@H](Cc2ccc(O)cc2)NC(=O)[C@H](C(C)C)NC(=O)[C@H](CC(=O)O)NC(=O)[C@H](CC2CCOCC2)NC(=O)[C@H](CC2CCNCC2)NC(=O)CNC(=O)[C@H](C(C)(C)C)NC1=O [compound 481, Ac-hLeu-Y-C-Tbg-G-PipAla-ThpA-D-V-Y-C-5FW-F-hydroxyVal-dLys(gE-tranexamate-DOTA)-COOH] (Ac-[hLeu]YC[Tle]G[Ala(piperidin-4-yl)][Ala(4-THP)]DVYC[Trp(5-F)]F[Val(3-OH)][dK]([γGlu-Trx-DOTA])-OH; disulfide 3-11)",< 1
2,"CC(=O)N[C@@H](CCC(C)C)C(=O)N[C@@H](Cc1ccc(O)cc1)C(=O)N[C@H]1CSSC[C@@H](C(=O)N[C@@H](Cc2c[nH]c3ccc(F)cc23)C(=O)N[C@@H](Cc2ccccc2)C(=O)N[C@H](C(=O)N[C@H](CO)C(=O)O)C(C)(C)O)NC(=O)[C@H](Cc2ccc(O)cc2)NC(=O)[C@H](C(C)C)NC(=O)[C@H](CC(=O)O)NC(=O)[C@H](CC2CCN(C(=O)CCOCCOCCOCCOCCNC(=O)CN3CCN(CC(=O)O)CCN(CC(=O)O)CCN(CC(=O)O)CC3)CC2)NC(=O)[C@H](CC2CCOCC2)NC(=O)CNC(=O)[C@H](C(C)(C)C)NC1=O [compound 484, Ac-hLeu-Y-C-Tbg-G-ThpA-Pip(PEG4-DOTA)Ala-D-V-Y-C-5FW-F-hydroxyVal-dSer-COOH] (Ac-[hLeu]YC[Tle]G[Ala(4-THP)][Ala(piperidin-4-yl)]([PEG4-DOTA])DVYC[Trp(5-F)]F[Val(3-OH)][dS]-OH; disulfide 3-11)",< 1
3,"CC(=O)N[C@@H](CCC(C)C)C(=O)N[C@@H](Cc1ccc(O)cc1)C(=O)N[C@H]1CSSC[C@@H](C(=O)N[C@@H](Cc2c[nH]c3ccc(F)cc23)C(=O)N[C@@H](Cc2ccccc2)C(=O)N[C@H](C(=O)N[C@H](CO)C(=O)O)C(C)(C)O)NC(=O)[C@H](Cc2ccc(O)cc2)NC(=O)[C@H](C(C)C)NC(=O)[C@H](CC(=O)O)NC(=O)[C@H](CC2CCOCC2)NC(=O)[C@H](CC2CCN(C(=O)CCOCCOCCOCCOCCNC(=O)CN3CCN(CC(=O)O)CCN(CC(=O)O)CCN(CC(=O)O)CC3)CC2)NC(=O)CNC(=O)[C@H](C(C)(C)C)NC1=O [compound 490, Ac-hLeu-Y-C-Tbg-G-Pip(PEG4-DOTA)Ala-ThpA-D-V-Y-C-5FW-F-hydroxyVal-dSer-COOH] (Ac-[hLeu]YC[Tle]G[Ala(piperidin-4-yl)]([PEG4-DOTA])[Ala(4-THP)]DVYC[Trp(5-F)]F[Val(3-OH)][dS]-OH; disulfide 3-11)",< 1

# The remaining lines, values ahead:
row,Kd [nM],Compound
1,< 1,"CC(=O)N[C@@H](CCC(C)C)C(=O)N[C@@H](Cc1ccc(O)cc1)C(=O)N[C@H]1CSSC[C@@H](C(=O)N[C@@H](Cc2c[nH]c3ccc(F)cc23)C(=O)N[C@@H](Cc2ccccc2)C(=O)N[C@H](C(=O)N[C@H](CO)C(=O)O)C(C)(C)O)NC(=O)[C@H](Cc2ccc(O)cc2)NC(=O)[C@H](C(C)C)NC(=O)[C@H](CC(=O)O)NC(=O)[C@H](CC2CCN(C(=O)CCOCCOCCOCCOCCNC(=O)CN3CCN(CC(=O)O)CCN(CC(=O)O)CCN(CC(=O)O)CC3)CC2)NC(=O)[C@H](CC2CCNCC2)NC(=O)CNC(=O)[C@H](C(C)(C)C)NC1=O [compound 483, Ac-hLeu-Y-C-Tbg-G-PipAla-Pip(PEG4-DOTA)Ala-D-V-Y-C-5FW-F-hydroxyVal-dSer-COOH] (Ac-[hLeu]YC[Tle]G[Ala(piperidin-4-yl)][Ala(piperidin-4-yl)]([PEG4-DOTA])DVYC[Trp(5-F)]F[Val(3-OH)][dS]-OH; disulfide 3-11)"
2,< 1,"CC(=O)N[C@@H](CCC1CCCCC1)C(=O)N[C@@H](Cc1ccc(O)cc1)C(=O)N[C@H]1CSSC[C@@H](C(=O)N[C@@H](Cc2c[nH]c3ccc(F)cc23)C(=O)N[C@@H](Cc2ccccc2)C(=O)N[C@H](C(=O)N[C@H](C)C(=O)O)C(C)(C)O)NC(=O)[C@H](Cc2ccc(O)cc2)NC(=O)[C@H](C(C)C)NC(=O)[C@H](CC(=O)O)NC(=O)[C@H](CC2CCOCC2)NC(=O)[C@H](CC2CCN(C(=O)CC[C@H](NC(=O)CN3CCN(CC(=O)O)CCN(CC(=O)O)CCN(CC(=O)O)CC3)C(=O)O)CC2)NC(=O)CNC(=O)[C@H](C(C)(C)C)NC1=O [compound 486, Ac-hCha-Y-C-Tbg-G-Pip(gE-DOTA)Ala-ThpA-D-V-Y-C-5FW-F-hydroxyVal-dAla-COOH] (Ac-[hCha]YC[Tle]G[Ala(piperidin-4-yl)]([γGlu-DOTA])[Ala(4-THP)]DVYC[Trp(5-F)]F[Val(3-OH)][dA]-OH; disulfide 3-11)"
3,< 1,"CC(=O)N[C@@H](CCC1CCCCC1)C(=O)N[C@@H](Cc1ccc(O)cc1)C(=O)N[C@H]1CSSC[C@@H](C(=O)N[C@@H](Cc2c[nH]c3ccc(F)cc23)C(=O)N[C@@H](Cc2ccccc2)C(=O)N[C@H](C(=O)N[C@H](C)C(=O)O)C(C)(C)O)NC(=O)[C@H](Cc2ccc(O)cc2)NC(=O)[C@H](C(C)C)NC(=O)[C@H](CC(=O)O)NC(=O)[C@H](CC2CCOCC2)NC(=O)[C@H](CC2CCN(C(=O)CC[C@H](NC(=O)CC[C@H](NC(=O)CN3CCN(CC(=O)O)CCN(CC(=O)O)CCN(CC(=O)O)CC3)C(=O)O)C(=O)O)CC2)NC(=O)CNC(=O)[C@H](C(C)(C)C)NC1=O [compound 487, Ac-hCha-Y-C-Tbg-G-Pip(gE-gE-DOTA)Ala-ThpA-D-V-Y-C-5FW-F-hydroxyVal-dAla-COOH] (Ac-[hCha]YC[Tle]G[Ala(piperidin-4-yl)]([γGlu-γGlu-DOTA])[Ala(4-THP)]DVYC[Trp(5-F)]F[Val(3-OH)][dA]-OH; disulfide 3-11)"
4,< 1,"CC(=O)N[C@@H](CCC(C)C)C(=O)N[C@@H](Cc1ccc(O)cc1)C(=O)N[C@H]1CSSC[C@@H](C(=O)N[C@@H](Cc2c[nH]c3ccc(F)cc23)C(=O)N[C@@H](Cc2ccccc2)C(=O)N[C@H](C(=O)N[C@H](C)C(=O)O)C(C)(C)O)NC(=O)[C@H](Cc2ccc(O)cc2)NC(=O)[C@H](C(C)C)NC(=O)[C@H](CC(=O)O)NC(=O)[C@H](CC2CCN(C(=O)CCOCCOCCOCCOCCNC(=O)CN3CCN(CC(=O)O)CCN(CC(=O)O)CCN(CC(=O)O)CC3)CC2)NC(=O)[C@H](CC2CCN(CC(=O)O)CC2)NC(=O)CNC(=O)[C@H](C(C)(C)C)NC1=O [compound 488, Ac-hLeu-Y-C-Tbg-G-Pip(CH2COOH)Ala-Pip(PEG4-DOTA)Ala-D-V-Y-C-5FW-F-hydroxyVal-dAla-COOH] (Ac-[hLeu]YC[Tle]G[Ala(1-CH2CO2H-4-piperidyl)][Ala(piperidin-4-yl)]([PEG4-DOTA])DVYC[Trp(5-F)]F[Val(3-OH)][dA]-OH; disulfide 3-11)"
5,< 1,"CC(=O)N[C@@H](CCC(C)C)C(=O)N[C@@H](Cc1ccc(O)cc1)C(=O)N[C@H]1CSSC[C@@H](C(=O)N[C@@H](Cc2c(C)[nH]c3ccccc23)C(=O)N[C@@H](Cc2ccccc2)C(=O)N[C@H](C(=O)N[C@H](CCCCNC(=O)CN2CCN(CC(=O)O)CCN(CC(=O)O)CCN(CC(=O)O)CC2)C(=O)O)C(C)(C)O)NC(=O)[C@H](Cc2ccc(O)cc2)NC(=O)[C@H](C(C)C)NC(=O)[C@H](CC(=O)O)NC(=O)[C@H](CC2CCOCC2)NC(=O)[C@H](CC2CCNCC2)NC(=O)CNC(=O)[C@H](C(C)(C)C)NC1=O [compound 492, Ac-hLeu-Y-C-Tbg-G-PipAla-ThpA-D-V-Y-C-2MeW-F-hydroxyVal-dLys(DOTA)-COOH] (Ac-[hLeu]YC[Tle]G[Ala(piperidin-4-yl)][Ala(4-THP)]DVYC[Trp(2-Me)]F[Val(3-OH)][dK](DOTA)-OH; disulfide 3-11)"

# Same assay, conditions: read-out: SPR KD—37° C.; 4Ig B7-H3; 37° C. flow cell temperature
row,Kd [nM],Compound
1,< 1,"CC(=O)N[C@@H](CCC(C)C)C(=O)N[C@@H](Cc1ccc(O)cc1)C(=O)N[C@H]1CSSC[C@@H](C(=O)N[C@@H](Cc2c[nH]c3ccc(F)cc23)C(=O)N[C@@H](Cc2ccccc2)C(=O)N[C@H](C(=O)N[C@H](C)C(=O)O)C(C)(C)O)NC(=O)[C@H](Cc2ccc(O)cc2)NC(=O)[C@H](C(C)C)NC(=O)[C@H](CC(=O)O)NC(=O)[C@H](CC2CCN(C(=O)CCOCCOCCOCCOCCNC(=O)CN3CCN(CC(=O)O)CCN(CC(=O)O)CCN(CC(=O)O)CC3)CC2)NC(=O)[C@H](CCCNC(N)=O)NC(=O)CNC(=O)[C@H](C(C)(C)C)NC1=O [compound 489, Ac-hLeu-Y-C-Tbg-G-Cit-Pip(PEG4-DOTA)Ala-D-V-Y-C-5FW-F-hydroxyVal-dAla-COOH] (Ac-[hLeu]YC[Tle]G[Cit][Ala(piperidin-4-yl)]([PEG4-DOTA])DVYC[Trp(5-F)]F[Val(3-OH)][dA]-OH; disulfide 3-11)"
